Laboratory results: patent publication US20190053492A1, “SUBSTITUTED PYRIDINE COMPOUNDS AS PESTICIDES” (Bayer CropScience Aktiengesellschaft, priority 2016, published 2019)
Read-outs that look alike come from different tables or passages of the source.

Experiments:
[1] = log P by HPLC on reversed-phase column (C 18), EEC Directive 79/831 Annex V.A8; assay type: physicochemical; conditions: 55° C.; for LOGP_HCOOH: log P (HCOOH); for chromatographic logP: reversed-phase HPLC column (C 18)
Protocol: Temperature: 55° C. […] Called log P (HCOOH) in the table. […] Called log P (neutral) in the table.

Phaedon cochleariae = Phaedon cochleariae spray test; assay type: in vivo; conditions: after 7 days, Chinese cabbage leaf discs
Protocol: Phaedon cochleariae—Spray Test
Solvent: 78.0 parts by weight of acetone • • 1.5 parts by weight of dimethylformamide
Emulsifier: alkylaryl polyglycol ether
To produce a suitable active ingredient formulation, 1 part by weight of active ingredient is dissolved with the specified parts by weight of solvent and made up with water containing an emulsifier concentration of 1000 ppm until the desired concentration is attained. To produce further test concentrations, the formulation is diluted with emulsifier-containing water.
Discs of Chinese cabbage leaves (Brassica pekinensis) are sprayed with an active ingredient formulation of the desired concentration and, after drying, populated with larvae of the mustard beetle (Phaedon cochleariae).
After 7 days, the efficacy in % is determined. 100% means that all the beetle larvae have been killed; 0% means that no beetle larvae have been killed.

Spodoptera frugiperda = Spodoptera frugiperda spray test; assay type: in vivo; conditions: after 7 days, maize leaf discs
In short: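 Maize leaf discs were sprayed with compound formulated in acetone/DMF and emulsifier-containing water, dried, then infested with Spodoptera frugiperda caterpillars. Percent kill was scored after 7 days, from 100% (all dead) to 0% (none dead).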

[2] = log P, neutral range, HPLC on reversed-phase column (C 18)
[3] = acidic range pH 2.7, 0.1% aqueous formic acid and acetonitrile, reversed-phase column (C 18)
[4] = log P (neutral), HPLC reversed-phase column (C 18)
[5] = acidic range at pH 2.7, 0.1% aqueous formic acid and acetonitrile, HPLC on reversed-phase column (C 18)

Row | Structure (SMILES) | LOGP_NEUTRAL [1, 2] | LOGP_HCOOH [1, 3] | LOGP_NEUTRAL [1, 4] | LOGP_HCOOH [1, 5] | chromatographic logP ([1]; pH 2.7, LC-MS acidic range, pH 2.7, 0.1% formic acid/acetonitrile, read-out: log P (acidic) / log P (HCOOH)) | chromatographic logP ([1]; pH 7.8, LC-MS neutral range, pH 7.8, ammonium hydrogencarbonate/acetonitrile, read-out: log P (neutral)) | efficacy (beetle larvae killed) (Phaedon cochleariae; application rate 500 g/ha) [%] | efficacy (caterpillars killed) (Spodoptera frugiperda; application rate 100 g/ha) [%] | efficacy (caterpillars killed) (Spodoptera frugiperda; application rate 500 g/ha) [%] | efficacy (beetle larvae killed) (Phaedon cochleariae; application rate 100 g/ha) [%] | pest or weed control at 500 g/ha (Phaedon cochleariae; Phaedon cochleariae, foliar, 168 h, application rate 500 g/ha, read-out: efficacy (beetle larvae killed)) [%] | pest or weed control at 500 g/ha (Spodoptera frugiperda; Spodoptera frugiperda, foliar, 168 h, application rate 500 g/ha, read-out: efficacy (caterpillars killed)) [%]
1 | CC(C)(C)C(=O)Nc1cc(-c2ccc(OC(F)(F)F)cc2)cc(C(=O)NCc2ccc(C#N)cc2)n1 [Example I-206] | 4.45 |  |  |  |  |  | 100 | 100 | 100 |  |  | 
2 | N#Cc1ccc(NC(=O)c2cc(-c3ccc(Cl)cc3)cc(NC(=O)C3CC3)n2)cc1 [Example I-022] | 4.29 | 4.34 |  |  |  |  | 100 | 100 | 100 | 83 |  | 
3 | O=C(NC(=O)c1cc(-c2ccc(C(F)(F)C(F)(F)F)c(F)c2)cc(NC(=O)C2CC2)n1)c1ccc([N+](=O)[O-])cc1 [Example I-263] |  | 4.57 | 4.54 |  |  |  | 100 |  | 100 |  |  | 
4 | CC(C)C(=O)Nc1cc(-c2ccc(C(F)(F)F)cc2)cc(C(=O)NCc2cc(F)c(C#N)cc2F)n1 [Example I-071] | 4.08 | 4.23 |  |  |  |  | 83 | 100 | 100 |  |  | 
5 | N#Cc1ccc(CNC(=O)c2cc(-c3c(Cl)cc(C(F)(F)C(F)(F)F)c(F)c3Cl)cc(NC(=O)C3CC3)n2)cc1 [Example I-276] |  | 4.57 |  |  |  |  | 100 |  | 83 |  |  | 
6 | COC1(NC(=O)c2cc(-c3ccc(C(F)(F)C(F)(F)F)c(F)c3)cc(NC(=O)C3CC3)n2)CC1 [Example I-244] |  | 4.08 | 4.08 |  |  |  | 100 | 100 | 100 | 100 |  | 
7 | N#Cc1ccc(CNC(=O)c2cc(-c3c(Cl)cc(C(F)(F)C(F)(F)F)cc3Cl)cc(NC(=O)C3CC3)n2)cc1 [Example I-265] |  | 4.51 |  |  |  |  | 100 |  | 100 |  |  | 
8 | N#CC1CCC(CNC(=O)c2cc(-c3ccc(OC(F)(F)F)cc3)cc(NC(=O)C3CC3)n2)CC1 (stereo not shown) [Example I-161] | 3.74 |  |  | 3.87 |  |  | 100 | 100 | 100 | 83 |  | 
9 | CC(=O)Nc1cc(-c2ccc(OC(F)(F)F)cc2)cc(C(=O)NCc2ccc(C#N)cc2)n1 [Example I-204] | 3.27 |  |  |  |  |  | 100 | 100 | 100 | 100 |  | 
10 | N#Cc1ccc(CNC(=O)c2cc(-c3ncc(C(F)(F)F)cc3Cl)cc(NC(=O)C3CC3)n2)cc1 [Example I-119] | 3.35 |  |  | 3.53 |  |  | 100 | 100 | 100 | 100 |  | 
11 | O=C(NC1CC1)c1cc(-c2ccc(C(F)(F)C(F)(F)F)c(F)c2)cc(NC(=O)C2CC2)n1 [Example I-243] |  | 3.94 |  |  |  |  | 100 | 100 | 100 | 100 |  | 
12 | O=C(NC1CC1)c1cc(-c2ccc(S(=O)(=O)C(F)(F)F)cc2)cc(NC(=O)C2CC2)n1 [Example I-103] | 3.17 | 3.28 |  |  |  |  | 100 |  | 100 |  |  | 
13 | N#Cc1ccc(CNC(=O)c2cc(-c3ccc(C(F)(F)F)cc3)cc(NC(=O)CC3CC3)n2)cc1 [Example I-055] | 3.82 | 3.92 |  |  |  |  | 100 | 100 | 100 |  |  | 

Second part, led by results:

Row | LOGP_NEUTRAL [1, 2] | LOGP_HCOOH [1, 3] | LOGP_NEUTRAL [1, 4] | LOGP_HCOOH [1, 5] | chromatographic logP ([1]; pH 2.7, LC-MS acidic range, pH 2.7, 0.1% formic acid/acetonitrile, read-out: log P (acidic) / log P (HCOOH)) | chromatographic logP ([1]; pH 7.8, LC-MS neutral range, pH 7.8, ammonium hydrogencarbonate/acetonitrile, read-out: log P (neutral)) | Structure (SMILES) | efficacy (beetle larvae killed) (Phaedon cochleariae; application rate 500 g/ha) [%] | efficacy (caterpillars killed) (Spodoptera frugiperda; application rate 100 g/ha) [%] | efficacy (caterpillars killed) (Spodoptera frugiperda; application rate 500 g/ha) [%] | efficacy (beetle larvae killed) (Phaedon cochleariae; application rate 100 g/ha) [%] | pest or weed control at 500 g/ha (Phaedon cochleariae; Phaedon cochleariae, foliar, 168 h, application rate 500 g/ha, read-out: efficacy (beetle larvae killed)) [%] | pest or weed control at 500 g/ha (Spodoptera frugiperda; Spodoptera frugiperda, foliar, 168 h, application rate 500 g/ha, read-out: efficacy (caterpillars killed)) [%]
14 | 3.66 | 3.78 |  |  |  |  | O=C(NCC1CC1)c1cc(-c2ccc(C(F)(F)F)cc2)cc(NC(=O)C2CC2)n1 [Example I-012] | 100 |  | 100 | 100 |  | 
15 | 4.89 | 5.01 |  |  |  |  | C[C@H](NC(=O)c1cc(-c2ccc(OC(F)(F)F)cc2)cc(NC(=O)C2CC2)n1)c1ccc(C(F)(F)F)cc1 [Example I-061] | 100 | 100 | 100 |  |  | 
16 | 3.37 |  |  | 3.41 |  |  | O=C(NCc1ccc(-c2nnco2)cc1)c1cc(-c2ccc(OC(F)(F)F)cc2)cc(NC(=O)C2CC2)n1 [Example I-112] | 100 | 83 | 100 |  |  | 
17 | 4.02 | 4.15 |  |  |  |  | N#Cc1cc(F)c(CNC(=O)c2cc(-c3ccc(OC(F)(F)F)cc3)cc(NC(=O)C3CC3)n2)cc1F [Example I-086] | 100 | 100 | 83 |  |  | 
18 | 3.77 | 3.82 |  |  |  |  | O=C(NCC(F)(F)F)c1cc(-c2ccc(C(F)(F)F)cc2)cc(NC(=O)C2CC2)n1 [Example I-009] | 100 |  | 100 |  |  | 
19 | 4.44 | 4.57 |  |  |  |  | O=C(NCc1ccc(Cl)c(F)c1)c1cc(-c2ccc(C(F)(F)F)cc2)cc(NC(=O)C2CC2)n1 [Example I-056] | 100 | 100 | 100 |  |  | 
20 | 3.26 | 3.36 |  |  |  |  | N#Cc1ccc(CNC(=O)c2cc(-c3ccc(C(F)(F)F)cc3)cc(NC(=O)C3CC3)n2)cn1 [Example I-042] | 100 | 83 | 100 | 100 |  | 
21 |  |  |  | 3.11 |  |  | O=C(NC1CCOC1=O)c1cc(-c2ccc(OC(F)(F)F)cc2)cc(NC(=O)C2CC2)n1 (stereo not shown) [Example I-135] | 83 |  | 100 |  |  | 
22 | 4.31 | 4.36 |  |  |  |  | CC(NC(=O)c1cc(-c2ccc(C(F)(F)F)cc2)cc(N(C(=O)C2CC2)C(=O)C2CC2)n1)c1ccc(C#N)cc1 (stereo not shown) [Example I-039] | 100 | 100 | 100 | 100 |  | 
23 | 4.82 | 4.89 |  |  |  |  | C[C@H](NC(=O)c1cc(-c2ccc(C(F)(F)F)cc2)cc(NC(=O)C2CC2)n1)c1ccc(C(F)(F)F)cc1 [Example I-060] | 100 | 83 | 100 |  |  | 
24 | 4.53 | 4.63 |  |  |  |  | O=C(NCc1ccc(Cl)cc1F)c1cc(-c2ccc(C(F)(F)F)cc2)cc(NC(=O)C2CC2)n1 [Example I-066] | 100 |  | 100 |  |  | 
25 |  | 2.09 | 4.19 |  |  |  | N#Cc1ccc(NC(=N)c2cc(-c3ccc(OC(F)(F)F)cc3)cc(NC(=O)C3CC3)n2)cc1 [Example I-261] | 83 | 100 | 100 |  |  | 
26 |  | 4.03 | 3.98 |  |  |  | N#Cc1ccc(CNC(=O)c2cc(-c3ccc(OC(F)(F)C(F)C(F)(F)F)cc3)cc(NC(=O)C3CC3)n2)cc1 (stereo not shown) [Example I-254] | 100 | 83 | 100 | 100 |  | 
27 | 4.06 | 4.17 |  |  |  |  | CC(NC(=O)c1cc(-c2ccc(C(F)(F)F)cc2)cc(NC(=O)C2CC2)n1)C1CC1 (stereo not shown) [Example I-031] | 100 |  | 100 |  |  | 
28 |  | 2.08 | 4.24 |  | 2.08 | 4.24 | N#Cc1ccc(CNC(=N)c2cc(-c3ccc(OC(F)(F)F)cc3)cc(NC(=O)C3CC3)n2)cc1 [Example I-258, N-{6-[N-(4-Cyanobenzyl)carbamimidoyl]-4-[4-(trifluoromethoxy)phenyl]pyridin-2-yl}cyclopropanecarboxamide] |  |  |  |  | 83 | 83
